Source: patent publication US8022103B2, “Ester prodrugs of prostratin and related phorbol compounds” (Salvia Sciences, Inc., priority 2005, dated 2011)
Values after ≈ are worked out from the molar mass of the structure shown. Like-named read-outs stand apart in the source and are kept apart here.

Tested on: HIV-1Ba-L
Assay: Anti-HIV efficacy in human monocyte/macrophages (p24 ELISA)
Format: cell-based
Method: SA-101A and SA-101B were tested for antiviral activity against HIV-1 virus in peripheral blood monocytes/macrophages. Monocytes/macrophages were derived from normal HIV-1 negative donors, and cultured under conditions which promote cell survival and HIV replication. Fresh human blood was obtained commercially from Biological Specialty Corporation (Colmar, Pa.). The low passage, monocytropic, clinical isolate HIV-1Ba-L (Subtype B, R5) was obtained from the NIAID AIDS Research and Reference Reagent Program. A pre-titered aliquot of HIV 1Ba-L was removed from the freezer (−80° C.) and thawed rapidly to room temperature in a biological safety cabinet immediately before use. Phytohemagglutinin (PHA-P) was obtained from Sigma (St. Louis, Mo.) and recombinant IL-2 was obtained from R&D Systems Inc. (Minneapolis, Minn.).
Compound preparation: Compounds SA-101A and SA-101B were in powder form and solubilized in DMSO prior to use. AZT (Sigma), solubilized in sterile dH2O, was used as the positive antiviral control. The compounds were tested at a 100 μg/mL high-test concentration; AZT was tested at a 1,000 ηM high-test concentration. Compound SA-101B was tested in the presence of 40% human AB serum.
Monocyte isolation and culture. Peripheral blood monocytes were isolated from screened donors sero-negative for HIV and HBV. Cells were pelleted by low speed centrifugation and re-suspended in PBS to remove contaminating platelets. The leukophoresed blood was then diluted with Dulbecco's phosphate buffered saline (PBS) and layered over of Lymphocyte Separation Medium (LSM; Cellgro® by Mediatech, Inc.; density 1.078+/−0.002 g/ml; Cat. # 85-072-CL) in a 50 mL centrifuge tube and then centrifuged. Banded PBMCs were gently aspirated from the interface and subsequently washed with PBS by low speed centrifugation. The cells were diluted to 4×10^6 cells per mL in DMEM without phenol red supplemented with 10% heat inactivated human pooled AB serum, 2 mM L-glutamine, 100 U/mL penicillin and 100 μg/mL streptomycin. Monocytes/macrophages were allowed to adhere to the interior 60 wells (100 μL/well) of a 96 well flat bottomed plate for 2 to 18 hours at 37° C., 5% CO2. The exterior wells were filled with 200 μL of sterile DPBS to serve as a humidity barrier. Following adherence of cells, the cultures were washed with sterile DPBS to remove non-adherent cells (lymphocytes and contaminating RBCs). […]
Anti-HIV efficacy evaluation in human monocyte/macrophages. […] At assay termination, virus replication was measured by collecting cell-free supernatant samples, which were analyzed for HIV p24 antigen content using a commercially available p24 ELISA assay (Coulter). […]

**Q.** What does the source list for `CC(=O)O[C@@]12C[C@@H](C)[C@@]3(O)[C@@H](C=C(CO)C[C@]4(O)C(=O)C(C)=C[C@@H]34)[C@@H]1C2(C)C` [SA-101A, 12-deoxyphorbol 13-acetate]?
**A.** IC50 (Human immunodeficiency virus 1, Macrophage, read-out: IC50): 0.11 µg/mL (≈ 0.282 µM); IC90 (Human immunodeficiency virus 1, Macrophage, read-out: IC90): 0.28 µg/mL (≈ 0.717 µM)

**Q.** Which IC50 (40% Human AB serum) does the source give for `CC(=O)OC12CC(C)C3(O)C(C=C(COC(=O)CCC(=O)O)CC4(O)C(=O)C(C)=CC43)C1C2(C)C` (stereo not shown) [SA-101B, Prostratin Succinate] here?
**A.** 0.28 µg/mL

**Q.** And the IC90 (40% Human AB serum)?
**A.** 7.29 µg/mL
